# Data taken from patent EP0951284B1, “[…] DERIVATIVES” (priority 1996, dated 1998).
# Counter-ions that a name gives are not always drawn. Like-named read-outs stand apart in the source and are kept apart here.
# Experiments:
# MAO-B [1] = assay: Inhibition of MAO activity ex vivo (brain tissue), PEA substrate; assay type: in vivo, mice; settings: mouse brain tissue
# Description: (§1) Male Sabra mice, weighing 45-50g were injected with test compound solutions (prepared in 0.9% saline). Each dose was administered to two or three mice. The mice were sacrificed two hours after drug administration or at a time corresponding to the peak AChE inhibition time (see Table 6). The brain and liver were rapidly dissected and stored in appropriate vials on ice. The tissues were weighed, diluted to 1/20 in sucrose 0.3M and stored at -20°C before performance of the MAO assay described above. The results given in Table 6 relate to measurements made on brain tissue only.
# MAO-A [2] = assay: Inhibition of MAO activity ex vivo (brain tissue), 5-HT substrate; assay type: in vivo, mice; settings: mouse brain tissue
# Description: as §1
# [3] = Acute toxicity in mice (sub-cutaneous, lethality within 6 hours); settings: mouse, in vivo, sc; for selectivity ratio: LD50 divided by ED50 (acetylcholine esterase ex vivo), read-out: Therapeutic Ratio (LD/AC); for LD50 at 6 h: sub-cutaneous, mice, within 6 hours
# Description: Drugs were administered sub-cutaneously in at least 3 doses, to a minimum of 10 mice per dose. […] Therapeutic Ratio was calculated as LD50 divided by ED50(acetylcholine esterase ex vivo).
# MAO-A [4] = target: T1, MAO-A (Rattus norvegicus, UniProt P21396); assay: Inhibition of MAO activity in vitro, rat brain homogenate, 5-HT substrate
# T1 sequence (P21396 1-526): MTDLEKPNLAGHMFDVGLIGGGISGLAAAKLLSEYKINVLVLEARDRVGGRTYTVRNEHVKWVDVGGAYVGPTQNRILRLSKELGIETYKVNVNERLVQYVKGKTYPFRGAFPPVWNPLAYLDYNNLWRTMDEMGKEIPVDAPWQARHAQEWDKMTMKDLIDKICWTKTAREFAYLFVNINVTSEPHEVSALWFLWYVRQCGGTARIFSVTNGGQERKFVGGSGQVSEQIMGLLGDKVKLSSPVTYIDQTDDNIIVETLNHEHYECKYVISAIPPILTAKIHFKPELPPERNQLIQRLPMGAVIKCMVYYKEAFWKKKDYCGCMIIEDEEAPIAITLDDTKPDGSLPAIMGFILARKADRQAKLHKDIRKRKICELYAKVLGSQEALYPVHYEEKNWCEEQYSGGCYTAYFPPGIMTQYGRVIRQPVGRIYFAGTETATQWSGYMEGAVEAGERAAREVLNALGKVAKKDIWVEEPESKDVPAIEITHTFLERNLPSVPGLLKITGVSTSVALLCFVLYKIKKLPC
# Description: (§2) The MAO enzyme source was a homogenate of rat brain in 0.3M sucrose, which was centrifuged at 600G for 15 minutes. The supernatant was diluted appropriately in 0.05M phosphate buffer, and pre-incubated with serial dilutions of test compounds for 20 minutes at 37°C. ^14C-Labeled substrates (2-phenylethylamine, hereinafter PEA; 5-hydroxytryptamine, hereinafter 5-HT) were then added, and the incubation continued for a further 20 minutes (PEA), or 30-45 minutes (5-HT). Substrate concentrations used were 50µM (PEA) and 1mM (5-HT). In the case of PEA, enzyme concentration was chosen so that not more than 10% of the substrate was metabolized during the course of the reaction. The deaminated products were extracted into toluene-ethyl acetate (1:1, v/v) containing 0.6% (w/v) 2,5-diphenyloxazole prior to determination by liquid scintillation counting. Radioactivity in the eluate indicates the production of neutral and acidic metabolites formed as a result of MAO activity. Activity of MAO in the sample was expressed as a percentage of control activity in the absence of inhibitors after subtraction of appropriate blank values The activity determined using PEA as substrate is referred to as MAO-B, and that determined using 5-HT as MAO-A.
# MAO-B [5] = target: T2, MAO-B (Rattus norvegicus, UniProt P19643); assay: Inhibition of MAO activity in vitro, rat brain homogenate, PEA substrate; assay type: biochemical; design: The MAO enzyme source was a homogenate of rat brain in 0.3M sucrose; from tissue; host or cells: rat brain homogenate (600G supernatant); settings: PEA 50µM
# T2 sequence (P19643 1-520): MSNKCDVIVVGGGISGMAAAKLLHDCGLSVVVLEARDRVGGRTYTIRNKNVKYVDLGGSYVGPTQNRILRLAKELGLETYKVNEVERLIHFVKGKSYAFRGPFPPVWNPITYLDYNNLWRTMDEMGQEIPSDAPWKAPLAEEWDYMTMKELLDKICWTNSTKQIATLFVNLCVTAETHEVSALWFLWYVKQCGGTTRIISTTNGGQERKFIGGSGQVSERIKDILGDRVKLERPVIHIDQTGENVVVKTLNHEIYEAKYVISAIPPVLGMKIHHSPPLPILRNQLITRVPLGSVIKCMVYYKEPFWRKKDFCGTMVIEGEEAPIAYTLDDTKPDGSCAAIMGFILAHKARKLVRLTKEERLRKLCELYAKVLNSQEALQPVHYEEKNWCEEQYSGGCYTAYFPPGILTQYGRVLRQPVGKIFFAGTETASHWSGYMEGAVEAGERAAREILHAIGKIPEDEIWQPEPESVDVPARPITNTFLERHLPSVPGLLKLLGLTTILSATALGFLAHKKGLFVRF
# Description: as §2
# [6] = target: T3, Human erythrocyte acetylcholinesterase (Homo sapiens, UniProt P22303); assay: In vitro measurement of acetylcholinesterase (AChE) inhibition (Ellman method); assay type: biochemical; settings: at time of peak activity, incubation 15 to 60 minutes at 37°C
# T3 construct: Human erythrocyte acetylcholinesterase (type XIII, Sigma Israel); purchased Sigma Israel type XIII; host or cells: human erythrocytes
# T3 sequence (P22303 32-617 isoform P22303-2 limits assumed): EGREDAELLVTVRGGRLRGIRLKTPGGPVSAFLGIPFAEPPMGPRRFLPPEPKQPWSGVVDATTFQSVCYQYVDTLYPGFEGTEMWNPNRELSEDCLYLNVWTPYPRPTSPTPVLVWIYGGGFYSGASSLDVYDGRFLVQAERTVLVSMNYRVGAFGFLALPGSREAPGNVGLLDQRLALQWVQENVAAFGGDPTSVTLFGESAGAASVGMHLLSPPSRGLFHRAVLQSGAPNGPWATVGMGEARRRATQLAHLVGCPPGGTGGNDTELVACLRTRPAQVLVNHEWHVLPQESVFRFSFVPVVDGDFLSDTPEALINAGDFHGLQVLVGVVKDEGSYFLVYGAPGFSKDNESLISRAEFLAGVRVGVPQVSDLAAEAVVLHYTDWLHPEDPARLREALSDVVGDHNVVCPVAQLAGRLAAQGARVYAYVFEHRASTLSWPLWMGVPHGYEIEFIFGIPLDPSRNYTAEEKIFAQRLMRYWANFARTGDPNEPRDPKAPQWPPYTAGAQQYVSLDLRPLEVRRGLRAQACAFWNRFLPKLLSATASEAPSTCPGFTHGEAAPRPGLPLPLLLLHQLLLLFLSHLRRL
# Description: Human erythrocyte acetylcholinesterase (type XIII, Sigma Israel), was prepared in a stock solution of 1U/ml, containing Triton (1%) and bovine serum albumin (0.05%) in phosphate buffer (pH 8). The enzyme (0.05U) was incubated with 3-5 different concentrations of test compound (in triplicate) for periods of from 15 to 60 minutes at 37°C. […] The percentage inhibition of AChE by each concentration of drug is calculated by comparison with that of enzyme in the absence of drug.
# whole brain AChE = target: T4, whole brain AChE (Mus musculus, UniProt P21836); assay: Ex vivo measurement of brain AChE inhibition after sub-cutaneous administration; assay type: in vivo, mice; settings: for ED50: sc, sub-cutaneous, mouse whole brain, at peak of activity, read-out: AChE Inhibition Ex vivo ED50 (AC)
# T4 construct: the brains rapidly removed (minus cerebellum), weighed and homogenized in 0.1M phosphate buffer pH 8.0; from tissue; host or cells: mouse brain (minus cerebellum) homogenate supernatant
# T4 sequence (P21836 32-614): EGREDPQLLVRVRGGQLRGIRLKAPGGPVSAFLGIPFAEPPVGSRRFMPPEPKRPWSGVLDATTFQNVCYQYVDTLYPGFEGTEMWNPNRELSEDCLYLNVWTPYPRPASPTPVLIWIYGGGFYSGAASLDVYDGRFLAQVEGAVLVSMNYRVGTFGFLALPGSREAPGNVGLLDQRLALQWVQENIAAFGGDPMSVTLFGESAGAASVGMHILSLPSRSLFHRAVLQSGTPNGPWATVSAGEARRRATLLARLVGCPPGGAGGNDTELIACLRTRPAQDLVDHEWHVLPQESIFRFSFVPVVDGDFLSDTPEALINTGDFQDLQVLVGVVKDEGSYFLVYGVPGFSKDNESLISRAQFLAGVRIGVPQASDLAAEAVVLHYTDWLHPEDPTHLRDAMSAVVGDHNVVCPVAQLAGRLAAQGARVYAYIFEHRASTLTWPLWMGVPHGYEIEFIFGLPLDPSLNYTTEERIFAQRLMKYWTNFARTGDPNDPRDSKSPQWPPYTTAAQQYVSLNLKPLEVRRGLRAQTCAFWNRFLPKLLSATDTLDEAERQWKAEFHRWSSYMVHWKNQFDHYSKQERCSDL
# Description: Test drugs or saline were administered sub-cutaneously to male mice (Sabra strain, 28-35g). At least 4-5 mice were used per dose and a minimum of 3 doses per drug were tested. The mice were sacrificed 15, 30, 60, 70, 90, 120 or 180 minutes after drug administration, the brains rapidly removed (minus cerebellum), weighed and homogenized in 0.1M phosphate buffer pH 8.0, containing Triton (1mg/100g tissue) and centrifuged to remove cell debris. Aliquots (25 µl) of the supernatant were then incubated with acetylthiocholine and DTNB. AChE activity measured as described above. The % inhibition of whole brain AChE by each dose of drug was calculated by comparison with enzyme activity from 3 saline treated control mice run at the same time.
# [7] = read-out: MAO-A Inhibition In vitro IC50, rat brain homogenate, 5-HT 1mM
structure (smiles),measurement,setting,value
"C#CCN(C)C(C)Cc1cccc(OC(=O)N(C)C)c1 (racemic) [Compound 20, (rac)-3-(N,N-dimethyl-carbamyloxy) -α-methyl-N'-methyl,N'-propargyl phenethylamine HCl]",MAO-B Inhibition Ex vivo ED50,MAO-B [1],7 µmol/kg
same,MAO-A Inhibition Ex vivo ED50,MAO-A [2],6 µmol/kg
same,selectivity ratio,[3],11.3
same,LD50 at 6 h,[3],170 µmol/kg
same,IC50,MAO-A [4],0.12 µM
same,IC50,MAO-B [5],0.4 µM
same,IC50,[6],1.7 µM
same,ED50,whole brain AChE,15 µmol/kg
C#CCNCCc1cccc(OC(=O)N(C)CC)c1 [Compound 13],MAO-B Inhibition Ex vivo ED50,MAO-B [1],50 µmol/kg
same,MAO-A Inhibition Ex vivo ED50,MAO-A [2],75 µmol/kg
same,selectivity ratio,[3],8.5
same,LD50 at 6 h,[3],458 µmol/kg
same,IC50,MAO-A [4],3.3 µM
same,IC50,MAO-B [5],8.3 µM
same,IC50,[6],30 µM
same,Time to peak activity t,whole brain AChE; AChE inhibition,30 to 90 min
same,Time to return to 50% of peak t,whole brain AChE; AChE inhibition,120 min
same,ED50,whole brain AChE,53.8 µmol/kg
C#CCNCCc1cccc(OC(=O)N(C)CCC)c1 [Compound 14],MAO-B Inhibition Ex vivo ED50,MAO-B [1],0.6 µmol/kg
same,MAO-A Inhibition Ex vivo ED50,MAO-A [2],4.5 µmol/kg
same,IC50,MAO-A [4]; [7],1.8 µM
same,IC50,MAO-B [5],0.3 µM
same,IC50,[6],12.5 µM
same,Time to peak activity t,whole brain AChE; AChE inhibition,30 min
same,ED50,whole brain AChE,100 µmol/kg
C#CCN(C)CCc1cccc(OC(=O)N(C)CC)c1 [Compound 15],MAO-B Inhibition Ex vivo ED50,MAO-B [1],35 µmol/kg
same,MAO-A Inhibition Ex vivo ED50,MAO-A [2],35 µmol/kg
same,selectivity ratio,[3],8.6
same,LD50 at 6 h,[3],1250 µmol/kg
same,IC50,MAO-A [4],1 µM
same,IC50,MAO-B [5],1 µM
same,IC50,[6],67.2 µM
same,Time to peak activity t,whole brain AChE; AChE inhibition,30 min
same,ED50,whole brain AChE,145 µmol/kg
C#CCN(C)C(C)Cc1cccc(OC(=O)N(C)CC)c1 (stereo not shown) [Compound 21],IC50,MAO-A [4]; [7],0.12 µM
same,IC50,MAO-B [5],0.2 µM
same,IC50,[6],230 µM
